Data as given in paper PMC10945555, “Improving Activity of New Arylurea Agents against Multidrug-Resistant and Biofilm-Producing Staphylococcus epidermidis” (ACS Medicinal Chemistry Letters, 2024).
Converted amounts (≈) assume the structure as drawn. Where two headings read alike, the source gives them in different places.

Tested on: clinical MDR Staphylococcus epidermidis isolates
Experiment: MIC, broth microdilution, 81 clinical MDR strains
Format: cell-based
Method: 2 Biological assay protocols
Microbiological tests were carried out under aseptic conditions in a laminar chamber of the 2nd […]
(BioTectum 1.2, Alchem Poland). The assessment of antimicrobial activity was carried out for final compounds in the form of free bases, soluble in DMSO (Merck, Germany), at the initial […]
concentration of 1 mg/mL. […]
were provided by Cayman Chemical, USA. […]
The antibacterial activity of selected compounds was also tested on a panel of 81 unrelated, multidrug -resistant clinical strains of Staphylococcus epidermidis from the own collection of the Department of Pharmaceutical Microbiology of the Jagiellonian University Medical College.
2.2 Effect of evaluated compounds on planktonic cells
The susceptibility of three reference bacterial strains (Staphylococcus epidermidis ATCC […]
Table S1) and 81 clinical MDR S. epidermidis (Table S2) to the tested compounds was assessed by determining the MIC value (Minimal Inhibitory Concentration) by microdilution in a liquid medium in 96-well flat-bottom cell culture plates (Nest Biotechnology Scientific, USA). The antibacterial properties of the compo unds were tested in the concentration range from 50 µg/mL to 0.1 µg/mL by making a series of double dilutions of the compound in liquid Mueller -Hinton II Broth Cation Adjusted (MHB II, BBL TM, USA) according to the European Committee on […]
Antimicrobial Susceptibility Testing guidelines (EUCAST).2,3 The determinations were performed twice. The MIC50 and MIC90 values were determined for each of the tested

O=C(Nc1cccc(Cl)c1)NC1CCN(CCC(Oc2ccc(C(F)(F)F)cc2)c2cccs2)CC1 (stereo not drawn) [Compound 25]
MIC (Staphylococcus epidermidis, clinical strain 42 (Table S2), read-out: MIC): 0.8 µg/mL (≈ 1.49 µM)
MIC (Staphylococcus epidermidis, clinical strain 42 (Table S5), read-out: MIC): 0.8 µg/mL (≈ 1.49 µM)
MIC (Staphylococcus epidermidis, clinical strain 43 (Table S2), read-out: MIC): 1.6 µg/mL (≈ 2.97 µM)
MIC (Staphylococcus epidermidis, clinical strain 43 (Table S5), read-out: MIC): 1.6 µg/mL (≈ 2.97 µM)
MIC (Staphylococcus epidermidis, clinical strain 44 (Table S2), read-out: MIC): 1.6 µg/mL (≈ 2.97 µM)
MIC (Staphylococcus epidermidis, clinical strain 44 (Table S5), read-out: MIC): 1.6 µg/mL (≈ 2.97 µM)
MIC (Staphylococcus epidermidis, clinical strain 45 (Table S2), read-out: MIC): 1.6 µg/mL (≈ 2.97 µM)
MIC (Staphylococcus epidermidis, clinical strain 45 (Table S5), read-out: MIC): 1.6 µg/mL (≈ 2.97 µM)
MIC (Staphylococcus epidermidis, clinical strain 46 (Table S2), read-out: MIC): 1.6 µg/mL (≈ 2.97 µM)
MIC (Staphylococcus epidermidis, clinical strain 46 (Table S5), read-out: MIC): 0.8 µg/mL (≈ 1.49 µM)
MIC (Staphylococcus epidermidis, clinical strain 47 (Table S2), read-out: MIC): 1.6 µg/mL (≈ 2.97 µM)
MIC (Staphylococcus epidermidis, clinical strain 47 (Table S5), read-out: MIC): 1.6 µg/mL (≈ 2.97 µM)
MIC (Staphylococcus epidermidis, clinical strain 48 (Table S2), read-out: MIC): 1.6 µg/mL (≈ 2.97 µM)
MIC (Staphylococcus epidermidis, clinical strain 48 (Table S5), read-out: MIC): 1.6 µg/mL (≈ 2.97 µM)
MIC (Staphylococcus epidermidis, clinical strain 49 (Table S2), read-out: MIC): 0.1 µg/mL (≈ 0.186 µM)
MIC (Staphylococcus epidermidis, clinical strain 49 (Table S5), read-out: MIC): 0.1 µg/mL (≈ 0.186 µM)
MIC (Staphylococcus epidermidis, clinical strain 50 (Table S2), read-out: MIC): 3.12 µg/mL (≈ 5.81 µM)
MIC (Staphylococcus epidermidis, clinical strain 50 (Table S5), read-out: MIC): 3.12 µg/mL (≈ 5.81 µM)
MIC (Staphylococcus epidermidis, clinical strain 51 (Table S2), read-out: MIC): 3.12 µg/mL (≈ 5.81 µM)
MIC (Staphylococcus epidermidis, clinical strain 51 (Table S5), read-out: MIC): 3.12 µg/mL (≈ 5.81 µM)
MIC (Staphylococcus epidermidis, clinical strain 52 (Table S2), read-out: MIC): 3.12 µg/mL (≈ 5.81 µM)
MIC (Staphylococcus epidermidis, clinical strain 52 (Table S5), read-out: MIC): 3.12 µg/mL (≈ 5.81 µM)
MIC (Staphylococcus epidermidis, clinical strain 53 (Table S2), read-out: MIC): 3.12 µg/mL (≈ 5.81 µM)
MIC (Staphylococcus epidermidis, clinical strain 53 (Table S5), read-out: MIC): 3.12 µg/mL (≈ 5.81 µM)
MIC (Staphylococcus epidermidis, clinical strain 54 (Table S2), read-out: MIC): 0.8 µg/mL (≈ 1.49 µM)
MIC (Staphylococcus epidermidis, clinical strain 54 (Table S5), read-out: MIC): 0.8 µg/mL (≈ 1.49 µM)
MIC (Staphylococcus epidermidis, clinical strain 55 (Table S2), read-out: MIC): 3.12 µg/mL (≈ 5.81 µM)
MIC (Staphylococcus epidermidis, clinical strain 55 (Table S5), read-out: MIC): 3.12 µg/mL (≈ 5.81 µM)
MIC (Staphylococcus epidermidis, clinical strain 56 (Table S2), read-out: MIC): 1.6 µg/mL (≈ 2.97 µM)
MIC (Staphylococcus epidermidis, clinical strain 56 (Table S5), read-out: MIC): 1.6 µg/mL (≈ 2.97 µM)
MIC (Staphylococcus epidermidis, clinical strain 57 (Table S2), read-out: MIC): 3.12 µg/mL (≈ 5.81 µM)
MIC (Staphylococcus epidermidis, clinical strain 57 (Table S5), read-out: MIC): 3.12 µg/mL (≈ 5.81 µM)
MIC (Staphylococcus epidermidis, clinical strain 58 (Table S2), read-out: MIC): 0.8 µg/mL (≈ 1.49 µM)
MIC (Staphylococcus epidermidis, clinical strain 58 (Table S5), read-out: MIC): 0.8 µg/mL (≈ 1.49 µM)
MIC (Staphylococcus epidermidis, clinical strain 59 (Table S2), read-out: MIC): 3.12 µg/mL (≈ 5.81 µM)
MIC (Staphylococcus epidermidis, clinical strain 59 (Table S5), read-out: MIC): 3.12 µg/mL (≈ 5.81 µM)
MIC (Staphylococcus epidermidis, clinical strain 60 (Table S2), read-out: MIC): 3.12 µg/mL (≈ 5.81 µM)
MIC (Staphylococcus epidermidis, clinical strain 60 (Table S5), read-out: MIC): 3.12 µg/mL (≈ 5.81 µM)
MIC (Staphylococcus epidermidis, clinical strain 61 (Table S2), read-out: MIC): 1.6 µg/mL (≈ 2.97 µM)
MIC (Staphylococcus epidermidis, clinical strain 61 (Table S5), read-out: MIC): 1.6 µg/mL (≈ 2.97 µM)
MIC (Staphylococcus epidermidis, clinical strain 62 (Table S2), read-out: MIC): 1.6 µg/mL (≈ 2.97 µM)
MIC (Staphylococcus epidermidis, clinical strain 62 (Table S5), read-out: MIC): 1.6 µg/mL (≈ 2.97 µM)
MIC (Staphylococcus epidermidis, clinical strain 63 (Table S2), read-out: MIC): 1.6 µg/mL (≈ 2.97 µM)
MIC (Staphylococcus epidermidis, clinical strain 63 (Table S5), read-out: MIC): 1.6 µg/mL (≈ 2.97 µM)
MIC (Staphylococcus epidermidis, clinical strain 64 (Table S2), read-out: MIC): 3.12 µg/mL (≈ 5.81 µM)
MIC (Staphylococcus epidermidis, clinical strain 64 (Table S5), read-out: MIC): 3.12 µg/mL (≈ 5.81 µM)
MIC (Staphylococcus epidermidis, clinical strain 65 (Table S2), read-out: MIC): 3.12 µg/mL (≈ 5.81 µM)
MIC (Staphylococcus epidermidis, clinical strain 65 (Table S5), read-out: MIC): 3.12 µg/mL (≈ 5.81 µM)
MIC (Staphylococcus epidermidis, clinical strain 66 (Table S2), read-out: MIC): 1.6 µg/mL (≈ 2.97 µM)
MIC (Staphylococcus epidermidis, clinical strain 66 (Table S5), read-out: MIC): 1.6 µg/mL (≈ 2.97 µM)
MIC (Staphylococcus epidermidis, clinical strain 67 (Table S2), read-out: MIC): 3.12 µg/mL (≈ 5.81 µM)
MIC (Staphylococcus epidermidis, clinical strain 67 (Table S5), read-out: MIC): 3.12 µg/mL (≈ 5.81 µM)
MIC (Staphylococcus epidermidis, clinical strain 68 (Table S2), read-out: MIC): 3.12 µg/mL (≈ 5.81 µM)
MIC (Staphylococcus epidermidis, clinical strain 68 (Table S5), read-out: MIC): 3.12 µg/mL (≈ 5.81 µM)
MIC (Staphylococcus epidermidis, clinical strain 69 (Table S2), read-out: MIC): 1.6 µg/mL (≈ 2.97 µM)
MIC (Staphylococcus epidermidis, clinical strain 69 (Table S5), read-out: MIC): 1.6 µg/mL (≈ 2.97 µM)
MIC (Staphylococcus epidermidis, clinical strain 70 (Table S2), read-out: MIC): 3.12 µg/mL (≈ 5.81 µM)
MIC (Staphylococcus epidermidis, clinical strain 70 (Table S5), read-out: MIC): 3.12 µg/mL (≈ 5.81 µM)
MIC (Staphylococcus epidermidis, clinical strain 71 (Table S2), read-out: MIC): 1.6 µg/mL (≈ 2.97 µM)
MIC (Staphylococcus epidermidis, clinical strain 71 (Table S5), read-out: MIC): 1.6 µg/mL (≈ 2.97 µM)
MIC (Staphylococcus epidermidis, clinical strain 72 (Table S2), read-out: MIC): 3.12 µg/mL (≈ 5.81 µM)
MIC (Staphylococcus epidermidis, clinical strain 72 (Table S5), read-out: MIC): 3.12 µg/mL (≈ 5.81 µM)
MIC (Staphylococcus epidermidis, clinical strain 73 (Table S2), read-out: MIC): 0.4 µg/mL (≈ 0.743 µM)
MIC (Staphylococcus epidermidis, clinical strain 73 (Table S5), read-out: MIC): 0.4 µg/mL (≈ 0.743 µM)
MIC (Staphylococcus epidermidis, clinical strain 74 (Table S2), read-out: MIC): 3.12 µg/mL (≈ 5.81 µM)
MIC (Staphylococcus epidermidis, clinical strain 74 (Table S5), read-out: MIC): 3.12 µg/mL (≈ 5.81 µM)
MIC (Staphylococcus epidermidis, clinical strain 75 (Table S2), read-out: MIC): 3.12 µg/mL (≈ 5.81 µM)
MIC (Staphylococcus epidermidis, clinical strain 75 (Table S5), read-out: MIC): 3.12 µg/mL (≈ 5.81 µM)
MIC (Staphylococcus epidermidis, clinical strain 76 (Table S2), read-out: MIC): 1.6 µg/mL (≈ 2.97 µM)
MIC (Staphylococcus epidermidis, clinical strain 76 (Table S5), read-out: MIC): 1.6 µg/mL (≈ 2.97 µM)
MIC (Staphylococcus epidermidis, clinical strain 77 (Table S2), read-out: MIC): 3.12 µg/mL (≈ 5.81 µM)
MIC (Staphylococcus epidermidis, clinical strain 77 (Table S5), read-out: MIC): 3.12 µg/mL (≈ 5.81 µM)
MIC (Staphylococcus epidermidis, clinical strain 78 (Table S2), read-out: MIC): 1.6 µg/mL (≈ 2.97 µM)
MIC (Staphylococcus epidermidis, clinical strain 78 (Table S5), read-out: MIC): 1.6 µg/mL (≈ 2.97 µM)
MIC (Staphylococcus epidermidis, clinical strain 79 (Table S2), read-out: MIC): 0.4 µg/mL (≈ 0.743 µM)
MIC (Staphylococcus epidermidis, clinical strain 79 (Table S5), read-out: MIC): 0.4 µg/mL (≈ 0.743 µM)
MIC (Staphylococcus epidermidis, clinical strain 80 (Table S2), read-out: MIC): 3.12 µg/mL (≈ 5.81 µM)
MIC (Staphylococcus epidermidis, clinical strain 80 (Table S5), read-out: MIC): 3.12 µg/mL (≈ 5.81 µM)
MIC (Staphylococcus epidermidis, clinical strain 81 (Table S2), read-out: MIC): 0.2 µg/mL (≈ 0.372 µM)
MIC (Staphylococcus epidermidis, clinical strain 81 (Table S5), read-out: MIC): 0.2 µg/mL (≈ 0.372 µM)
MIC (Staphylococcus epidermidis, mean of MIC values against clinical MDR-SE isolates, read-out: mean MIC): 1.76 µg/mL (≈ 3.27 µM)
MIC50 (Staphylococcus epidermidis, 81 clinical strains, concentration inhibiting growth of 50% clinical isolates): 1.6 µg/mL (≈ 2.97 µM)
MIC90 (Staphylococcus epidermidis, 81 clinical strains, concentration inhibiting growth of 90% of clinical isolates): 3.12 µg/mL (≈ 5.81 µM)
category according to EUCAST clinical breakpoints for linezolid (all reference and clinical MDR S. epidermidis strains): within the susceptible category
